Assay results taken from ChEMBL document CHEMBL5126678, “A New Naphthopyran Derivative Combines c-Myb Inhibition, Microtubule-Targeting Effects, and Antiangiogenic Properties” (ACS Med Chem Lett, 2022).
Activity calls are given as the source filed them. No cut-off for these calls is given here.

Assays:
HT-29 = assay: Cytotoxicity against human HT-29 cells assessed as reduction in cell viability measured after 72 hrs by MTT assay; format: functional, cell-based; settings: HT-29, 72 h
HCT-116 [1] = assay: Cytotoxicity against p53-deficient human HCT-116 cells assessed as reduction in cell viability measured after 72 hrs by MTT assay; format: functional, cell-based; settings: HCT-116, 72 h
HeLa = assay: Cytotoxicity against human HeLa cells assessed as reduction in cell viability measured after 72 hrs by MTT assay; format: functional, cell-based
518A2 [2] = assay: Cytotoxicity against human 518A2 cells assessed as reduction in cell viability measured after 72 hrs by MTT assay; format: functional, cell-based; settings: 518A2, 72 h
[3] = target: Transcriptional activator Myb (Homo sapiens, UniProt P10242); assay: Inhibition of c-Myb (unknown origin) expressed in HEK293T cells measured after 16 hrs by steady-glo luciferase reporter gene assay; format: cell-based
Sequence of Transcriptional activator Myb (P10242 whole entry): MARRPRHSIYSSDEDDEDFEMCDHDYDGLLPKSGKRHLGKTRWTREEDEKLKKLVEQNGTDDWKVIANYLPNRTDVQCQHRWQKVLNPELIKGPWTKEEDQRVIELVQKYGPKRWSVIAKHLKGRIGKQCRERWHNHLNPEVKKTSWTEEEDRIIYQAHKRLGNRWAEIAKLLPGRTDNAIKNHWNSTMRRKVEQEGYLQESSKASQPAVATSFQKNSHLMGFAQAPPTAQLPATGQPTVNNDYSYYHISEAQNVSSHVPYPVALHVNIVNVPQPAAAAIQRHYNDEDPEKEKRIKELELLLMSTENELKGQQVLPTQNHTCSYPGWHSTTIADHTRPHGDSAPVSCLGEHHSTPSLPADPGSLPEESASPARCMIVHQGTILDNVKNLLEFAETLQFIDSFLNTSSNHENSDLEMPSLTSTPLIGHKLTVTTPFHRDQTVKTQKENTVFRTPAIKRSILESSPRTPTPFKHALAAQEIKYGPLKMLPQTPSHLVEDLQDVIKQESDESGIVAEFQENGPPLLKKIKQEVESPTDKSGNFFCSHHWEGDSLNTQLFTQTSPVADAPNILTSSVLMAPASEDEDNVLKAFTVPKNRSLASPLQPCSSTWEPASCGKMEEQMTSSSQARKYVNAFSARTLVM

HCT-116 [4] = assay: Cytotoxicity against human HCT-116 cells assessed as reduction in cell viability measured after 72 hrs by MTT assay; format: functional, cell-based; settings: HCT-116, 72 h
KB-V1 [5] = assay: Cytotoxicity against human multidrug-resistant KB-V1 cells assessed as reduction in cell viability measured after 72 hrs by MTT assay; format: functional, cell-based; settings: KB-V1, 72 h
KB-V1 [6] = assay: Cytotoxicity against human multidrug-resistant KB-V1 cells assessed as reduction in cell viability measured after 72 hrs in presence of verapamil by MTT assay; format: functional, cell-based; settings: KB-V1, 72 h
MCF7 = assay: Cytotoxicity against human MCF7 cells assessed as reduction in cell viability measured after 72 hrs by MTT assay; format: functional, cell-based; settings: MCF7, 72 h
[7] = Cytotoxicity against human U-87 cells assessed as reduction in cell viability measured after 72 hrs by MTT assay; format: functional, cell-based, U-87MG ATCC; settings: U-87 MG
[8] = Cytotoxicity against human EA.hy 926 cells assessed as reduction in cell viability measured after 72 hrs by MTT assay; format: toxicity, cell-based
[9] = Hydrolytic stability of compound in DMSO-d6/D2O measured after 7 days by 1H-NMR analysis; format: physicochemical; settings: 168 h; time 7 day
[10] = Effect on angiogenic activity in 24 hrs post-fertilized fil1/EGFP transgenic zebrafish embryo assessed as subintestinal vessel area at 100 nM measured after 48 hrs by fluorescence microscopy (reference value: 100%); format: toxicity, Danio rerio; settings: 0.1 µM
[11] = Cytotoxicity against HDFa cells assessed as reduction in cell viability at 0.0005 to 100 uM measured after 72 hrs by MTT assay; format: toxicity, cell-based; settings: human, dose 0.0005-100 µM
[12] = Effect on angiogenic activity in human EA.hy 926 cells assessed as reduction in vessel like 2D structure at 25 nM measured after 5 hrs by light microscopy; format: toxicity, cell-based; settings: ea.hy 926, 5 h, 0.025 µM
Tubulin (Homo sapiens) [13] = target: T1, Tubulin (Homo sapiens) (UniProt P68371+Q9H4B7+P0DPH7+P68366+Q13509+Q71U36+P04350+Q3ZCM7+P07437+P68363+Q9BQE3+Q6PEY2+Q13885+Q9BVA1+Q9BUF5); assay: Induction of microtubule fragmentation in human 518A2 cells at 25 nM measured after 24 hrs by immunofluorescence assay; format: cell-based
518A2 [14] = assay: Cell cycle arrest in human […] cells assessed as increase in accumulation at G2/M phase at 25 nM measured after 6 to 24 hrs by propidium iodide staining based FACS analysis; format: functional; settings: time 6-24 hrs
Tubulin (Homo sapiens) [15] = target: T1, Tubulin (Homo sapiens); assay: Induction of microtubule fragmentation in human 518A2 cells assessed as appearance of area with dorsal stress fibre at 25 nM measured after 24 hrs by immunofluorescence assay; format: cell-based
Tubulin (Homo sapiens) [16] = target: T1, Tubulin (Homo sapiens); assay: Induction of microtubule fragmentation in human 518A2 cells assessed as appearance of area with transverse arcs at 25 nM measured after 24 hrs by immunofluorescence assay; format: cell-based
Sus scrofa = organism: Sus scrofa; assay: Inhibition of porcine brain tubulin polymerization at 5 uM measured at 10 mins interval for 100 mins by turbidimetric assay; format: tissue-based
518A2 [17] = assay: Cell cycle arrest in human […] cells assessed as increase in accumulation at sub-G1 phase at 25 nM measured after 6 to 24 hrs by propidium iodide staining based FACS analysis; format: functional; settings: time 6-24 hrs
[18] = target: Caspase-3/Caspase-7 (Homo sapiens) (UniProt P42574+P55210); assay: Activation of caspase-3/7 activity in human 518A2 cells at 25 nM preincubated for 24 hrs followed by caspase-3/7 fluorogenic substrate addition and measured after 60 mins by fluorescence assay; format: cell-based; settings: filed as activator, time 25.0 hrs
Sequence of Caspase-3/Caspase-7 (Homo sapiens) (P42574 whole entry, looked up): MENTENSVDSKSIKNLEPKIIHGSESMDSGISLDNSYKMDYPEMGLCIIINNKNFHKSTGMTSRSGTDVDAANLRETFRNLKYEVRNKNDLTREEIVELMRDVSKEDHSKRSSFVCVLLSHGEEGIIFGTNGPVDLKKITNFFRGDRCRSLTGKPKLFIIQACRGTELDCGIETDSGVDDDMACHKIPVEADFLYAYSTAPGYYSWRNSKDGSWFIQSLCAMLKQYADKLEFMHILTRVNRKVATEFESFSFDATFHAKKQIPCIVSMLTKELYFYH
Sequence of Caspase-3/Caspase-7 (Homo sapiens) (P55210 whole entry, looked up): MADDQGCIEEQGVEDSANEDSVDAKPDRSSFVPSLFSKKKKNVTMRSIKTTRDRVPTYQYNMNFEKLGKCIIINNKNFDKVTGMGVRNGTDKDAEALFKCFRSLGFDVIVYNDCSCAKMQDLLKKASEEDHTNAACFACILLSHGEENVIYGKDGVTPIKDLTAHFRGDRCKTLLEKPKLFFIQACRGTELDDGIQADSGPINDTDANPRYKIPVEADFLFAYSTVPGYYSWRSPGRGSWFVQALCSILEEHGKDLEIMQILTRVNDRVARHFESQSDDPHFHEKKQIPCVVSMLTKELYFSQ

[19] = Stability of compound in human 518A2 cell lysate measured after 72 hrs by RP-HPLC analysis; format: ADME, subcellular; settings: 518a2, 72 h
[20] = Drug uptake in cytoplasm of human 518A2 cells at 25 uM measured within 15 mins by confocal microscopy; format: ADME, subcellular; settings: 518a2, 0.25 h
[21] = Stability of compound in human 518A2 cell lysate at 100 uM measured after 24 hrs by UV-absorption spectra analysis; format: ADME, subcellular; settings: 518a2, 24 h

N#CC1=C(N)Oc2c(ccc3ccccc23)C1c1cccc([N+](=O)[O-])c1 (stereo unspecified)
IC50 (HT-29): 32.1 nM
IC50 (HCT-116 [1]): 28.2 nM
IC50 (HeLa): 36.1 nM
IC50 (518A2 [2]): 10.8 nM
IC50 [3]: 8.7 nM
IC50 (HCT-116 [4]): 7.57 nM
IC50 (KB-V1 [5]): 23.7 nM
IC50 (KB-V1 [6]): 76.1 nM
IC50 (MCF7): 182 nM
IC50 [7]: 67.7 nM
IC50 at 72 h [8]: 29.5 nM
Stability [9]: Stable

CSc1ccc(C2C(C#N)=C(N)Oc3c2ccc2ccccc32)cc1F (stereo unspecified)
IC50 [3]: 240 nM

CCCCCOc1c(OC)cc(C2C(C#N)=C(N)Oc3c2ccc2ccccc32)cc1OC (stereo unspecified)
IC50 [3]: 400 nM

COc1cc(C2C(C#N)=C(N)Oc3c2ccc2ccccc32)ccc1OCc1ccccc1 (stereo unspecified)
IC50 [3]: 1000 nM

COc1cc(C2C(C#N)=C(N)Oc3c2ccc2ccccc32)cc(OC)c1OC (stereo unspecified)
Activity [10]: 81.4%
Activity [11]: Toxic
IC50 (HT-29): 324 nM
IC50 (HCT-116 [1]): 27.6 nM
Activity [12]: Toxic
Activity (Tubulin (Homo sapiens) [13]): Active
IC50 (HeLa): 11.3 nM
Activity (518A2 [14]): Active
IC50 (518A2 [2]): 28.8 nM
IC50 [3]: 9.1 nM
IC50 (HCT-116 [4]): 22.2 nM
Activity (Tubulin (Homo sapiens) [15]): Active
Activity (Tubulin (Homo sapiens) [16]): Active
IC50 (KB-V1 [5]): 26.4 nM
inhibition (Sus scrofa): Active
IC50 (KB-V1 [6]): 8.8 nM
Activity (518A2 [17]): Active
IC50 (MCF7): 34.1 nM
IC50 [7]: 5.2 nM
IC50 at 72 h [8]: 19.9 nM
Stability [9]: Stable
Activity [18]: Active

Cc1ccc(C2C(C#N)=C(N)Oc3c2ccc2ccccc32)cc1 (stereo unspecified)
IC50 [3]: 430 nM

C=CCOc1c(OC)cc(C2C(C#N)=C(N)Oc3c2ccc2ccccc32)cc1OC (stereo unspecified)
Activity [10]: 31.3%
Activity [11]: Toxic
IC50 (HT-29): 395 nM
IC50 (HCT-116 [1]): 15.9 nM
Activity (Tubulin (Homo sapiens) [13]): Active
IC50 (HeLa): 22.2 nM
Activity (518A2 [14]): Active
IC50 (518A2 [2]): 3.6 nM
IC50 [3]: 14 nM
IC50 (HCT-116 [4]): 193 nM
Activity (Tubulin (Homo sapiens) [15]): Active
Activity (Tubulin (Homo sapiens) [16]): Active
IC50 (KB-V1 [5]): 18.7 nM
inhibition (Sus scrofa): Active
IC50 (KB-V1 [6]): 15.9 nM
Activity (518A2 [17]): Active
IC50 (MCF7): 43.3 nM
IC50 [7]: 5.7 nM
IC50 at 72 h [8]: 15.7 nM
Activity [18]: Active

COc1ccc(C2C(C#N)=C(N)Oc3c2ccc2ccccc32)cc1Br (stereo unspecified)
IC50 [3]: 420 nM

N#CC1=C(N)Oc2c(ccc3ccccc23)C1c1ccc(S(F)(F)(F)(F)F)cc1 (stereo unspecified)
IC50 [3]: 3200 nM

N#CC1=C(N)Oc2c(ccc3ccccc23)C1c1ccc(C#N)cc1 (stereo unspecified)
IC50 [3]: 390 nM

CCOc1c(Br)cc(C2C(C#N)=C(N)Oc3c2ccc2ccccc32)cc1OC (stereo unspecified)
IC50 [3]: 36.8 nM

C#CCOc1c(OC)cc(C2C(C#N)=C(N)Oc3c2ccc2ccccc32)cc1OC (stereo unspecified)
Activity [10]: 34.5%
Activity [11]: Toxic
Stability [19]: Stable
Drug uptake [20]: Active
IC50 (HT-29): 36.9 nM
IC50 (HCT-116 [1]): 19.9 nM
Activity [12]: Toxic
Activity (Tubulin (Homo sapiens) [13]): Active
IC50 (HeLa): 24 nM
Activity (518A2 [14]): Active
Stability [21]: Stable
IC50 (518A2 [2]): 20.6 nM
IC50 [3]: 11 nM
IC50 (HCT-116 [4]): 75.2 nM
Activity (Tubulin (Homo sapiens) [15]): Active
Activity (Tubulin (Homo sapiens) [16]): Active
IC50 (KB-V1 [5]): 60.6 nM
inhibition (Sus scrofa): Active
IC50 (KB-V1 [6]): 10.6 nM
Activity (518A2 [17]): Active
IC50 (MCF7): 2.6 nM
IC50 [7]: 5.2 nM
IC50 at 72 h [8]: 17.1 nM
Stability [9]: Stable
Activity [18]: Active

COc1cc(C2C(C#N)=C(N)Oc3c2ccc2ccccc32)c(Br)c(OC)c1OC (stereo unspecified)
IC50 [3]: 130 nM

COc1cc(C2C(C#N)=C(N)Oc3c2ccc2ccccc32)cc(OC)c1OC(C)C (stereo unspecified)
Activity [10]: 80.9%
Activity [11]: Toxic
IC50 (HT-29): 4310 nM
IC50 (HCT-116 [1]): 137 nM
IC50 (HeLa): 72 nM
Activity (518A2 [14]): Active
IC50 (518A2 [2]): 266 nM
IC50 [3]: 60 nM
IC50 (HCT-116 [4]): 274 nM
IC50 (KB-V1 [5]): 89 nM
inhibition (Sus scrofa): Active
IC50 (KB-V1 [6]): 105 nM
Activity (518A2 [17]): Active
IC50 (MCF7): 265 nM
IC50 [7]: 53.1 nM
IC50 at 72 h [8]: 65.8 nM
Activity [18]: Active

COc1ccc(C2C(C#N)=C(N)Oc3c2ccc2ccccc32)cc1 (stereo unspecified)
IC50 [3]: 3700 nM
